{
  "source": "patent US20110196000A1",
  "about": "“Use of succinate dehydrogenase (SDH) inhibitors in the treatment of plant species from the family of the true grasses” (Bayer CropScience AG, priority 2010, published 2011)",
  "format_in_all_cases": "in vivo",
  "key": {"wheat variety Ritmo [1]": {"tested_on": "wheat variety Ritmo", "assay": "Plot trial in Germany: green leaf area by visual scoring", "conditions": "sprays at BBCH 39 and 59", "experimental": "In Germany a plot trial was set up with the wheat variety Ritmo in order to investigate the effect of bixafen on the physiology, morphology and abiotic stress tolerance of wheat plants under realistic agricultural conditions. The products under test were applied to the plants, in the form of sequential spray sequences (BBCH 39 and 59). The spray volume was 400 l of water per hectare. In each trial component, 5 repetitions were carried out. [table] The duration of green coloration of the leaf area was captured by regular visual scoring of the fraction of green leaf area."}, "wheat variety Ritmo [2]": {"tested_on": "wheat variety Ritmo", "assay": "Plot trial: chlorophyll content of leaves (pigment extraction method of Ziegler and Ehle)"}, "wheat variety Ritmo [3]": {"tested_on": "wheat variety Ritmo", "assay": "Plot trial: yield components", "conditions": "sprays at BBCH 39 and 59"}, "[4]": {"conditions": "7 days after second fungicide application"}, "[5]": {"conditions": "14 days after second fungicide application"}, "[6]": {"conditions": "21 days after second fungicide application"}, "[7]": {"conditions": "28 days after second fungicide application"}, "[8]": {"conditions": "35 days after second fungicide application"}, "[9]": {"conditions": "42 days after second fungicide application"}},
  "data": [
    {"smiles": "O=C(Nc1ccccc1-c1ccc(Cl)cc1)c1cccnc1Cl", "note": "[Boscalid, 2-chloro-N-(4′-chlorobiphenyl-2-yl)nicotinamide]", "values": [
      {"measurement": "green leaf area of the flag leaf", "setting": "wheat variety Ritmo [1]; [4]", "result": 96.0, "unit": "% leaf area"},
      {"measurement": "green leaf area of the second-from-top leaf (F-1)", "setting": "wheat variety Ritmo [1]; [4]", "result": 94.4, "unit": "% leaf area"},
      {"measurement": "green leaf area of the third-from-top leaf (F-2)", "setting": "wheat variety Ritmo [1]; [4]", "result": 90.3, "unit": "% leaf area"},
      {"measurement": "green leaf area of the flag leaf", "setting": "wheat variety Ritmo [1]; [5]", "result": 95.5, "unit": "% leaf area"},
      {"measurement": "green leaf area of the second-from-top leaf (F-1)", "setting": "wheat variety Ritmo [1]; [5]", "result": 91.8, "unit": "% leaf area"},
      {"measurement": "green leaf area of the third-from-top leaf (F-2)", "setting": "wheat variety Ritmo [1]; [5]", "result": 85.8, "unit": "% leaf area"},
      {"measurement": "green leaf area of the flag leaf", "setting": "wheat variety Ritmo [1]; [6]", "result": 86.1, "unit": "% leaf area"},
      {"measurement": "green leaf area of the second-from-top leaf (F-1)", "setting": "wheat variety Ritmo [1]; [6]", "result": 74.7, "unit": "% leaf area"},
      {"measurement": "green leaf area of the third-from-top leaf (F-2)", "setting": "wheat variety Ritmo [1]; [6]", "result": 61.5, "unit": "% leaf area"},
      {"measurement": "green leaf area of the flag leaf", "setting": "wheat variety Ritmo [1]; [7]", "result": 73.6, "unit": "% leaf area"},
      {"measurement": "green leaf area of the second-from-top leaf (F-1)", "setting": "wheat variety Ritmo [1]; [7]", "result": 60.0, "unit": "% leaf area"},
      {"measurement": "green leaf area of the third-from-top leaf (F-2)", "setting": "wheat variety Ritmo [1]; [7]", "result": 41.0, "unit": "% leaf area"},
      {"measurement": "green leaf area of the flag leaf", "setting": "wheat variety Ritmo [1]; [8]", "result": 43.2, "unit": "% leaf area"},
      {"measurement": "green leaf area of the second-from-top leaf (F-1)", "setting": "wheat variety Ritmo [1]; [8]", "result": 25.5, "unit": "% leaf area"},
      {"measurement": "green leaf area of the third-from-top leaf (F-2)", "setting": "wheat variety Ritmo [1]; [8]", "result": 4.6, "unit": "% leaf area"},
      {"measurement": "green leaf area of the flag leaf", "setting": "wheat variety Ritmo [1]; [9]", "result": 7.0, "unit": "% leaf area"},
      {"measurement": "green leaf area of the second-from-top leaf (F-1)", "setting": "wheat variety Ritmo [1]; [9]", "result": 0, "unit": "% leaf area"},
      {"measurement": "green leaf area of the third-from-top leaf (F-2)", "setting": "wheat variety Ritmo [1]; [9]", "result": 0, "unit": "% leaf area"},
      {"measurement": "green leaf area of the second-from-top leaf (F-1)", "setting": "wheat variety Ritmo [1]; 49 days after second fungicide application", "result": 0, "unit": "% leaf area"},
      {"measurement": "Chlorophyll content", "setting": "wheat variety Ritmo [2]; BBCH 75 (mature milk), leaf F", "result": 1597, "unit": "µg/g"},
      {"measurement": "Chlorophyll content", "setting": "wheat variety Ritmo [2]; BBCH 75 (mature milk), leaf F-1", "result": 1505, "unit": "µg/g"},
      {"measurement": "Chlorophyll content", "setting": "wheat variety Ritmo [2]; BBCH 75 (mature milk), leaf F-2", "result": 826, "unit": "µg/g"},
      {"measurement": "Chlorophyll content", "setting": "wheat variety Ritmo [2]; BBCH 85 (mature dough), leaf F", "result": 188, "unit": "µg/g"},
      {"measurement": "Chlorophyll content", "setting": "wheat variety Ritmo [2]; BBCH 85 (mature dough), leaf F-1", "result": 160, "unit": "µg/g"},
      {"measurement": "Chlorophyll content", "setting": "wheat variety Ritmo [2]; BBCH 85 (mature dough), leaf F-2", "result": 110, "unit": "µg/g"},
      {"measurement": "Ears/m^2", "setting": "wheat variety Ritmo [3]", "result": 444},
      {"measurement": "Harvest Index", "setting": "wheat variety Ritmo [3]", "result": 58.6},
      {"measurement": "Straw", "setting": "wheat variety Ritmo [3]", "result": 514, "unit": "g m^−2"},
      {"measurement": "TKM (thousand-kernel mass)", "setting": "wheat variety Ritmo [3]", "result": 44.6, "unit": "g"},
      {"measurement": "Yield", "setting": "wheat variety Ritmo [3]", "result": 7.8, "unit": "t ha^−1"}
    ]}
  ]
}
